A short description of series [1]: storage stability of solutions and syrups. It counts as physicochemical. The following applies: at room temperature; oleacein (1 g) in PEG200 or PEG 400 (5 ml). The method, then:
Dried olive leaves of Kalamata variety (10 kg) with 1% moisture are cut in the presence of water (100 L) at 25° C. and left in contact for 30 min. The mixture is filtered and the aqueous phase is obtained. The aqueous solution is extracted with dichloromethane (80 L) and the dichloromethane layer is obtained and evaporated under vacuum at 30° C. The residue (100 g) is made up of oleacein with a purity of 95%. The oleacein is mixed with water (10 L) under vigorous stirring for 30 min and transformed into a pure oleaceinediol solution. Alternatively, oleacein (1 g) is mixed with PEG200 or PEG 400 (5 ml) and converted into the stable polyethylene glycol hemiacetal. This solution is stable at room temperature for 12 months. This solution can be diluted to 100 ml with a saturated sugar solution affording a syrup containing 1% oleaceinediol, stable for 15-30 days with anti-inflammatory use.
Fresh olive leaves of Koroneiki variety (100 g) are left in contact with dichloromethane (500 g) at 25° C. for 30 min. The mixture is filtered and the organic phase is evaporated under vacuum. The residue is dissolved in deionized and distilled water at pH=6 (100 ml) under stirring for 24 hours, filtered and a solution of pure oleomissional is obtained. The solution is evaporated or lyophilized and oleomissional (160 mg) is obtained with a purity of >95%. […]

In a further series the test system is MCF-7 cancer cells. The experiment in a line: cytotoxic activity on MCF-7 cancer cells. Format: cell-based. The conditions noted are these: read-out: concentration leading to death of 50% of cells.
Another series has as its system HeLa cancer cells. Put plainly: cytotoxic activity on HeLa cancer cells. Format: cell-based. The conditions noted are these: read-out: concentration leading to death of 50% of cells.
A short description of another series: water solubility. It counts as physicochemical. The conditions noted are these: in comparison with the aldehydic forms (1).

As to “polyethylene glycol hemiacetal of oleacein”, in series [1], the time stable came out at 12 months.
With 5S-(E)-oleomissionadiol, the IC50 in the series on MCF-7 cancer cells and in the series on HeLa cancer cells was 50 µM in each case. In addition, the “water solubility with respect to substances (1), (2)” value in “water solubility” was “greatly increased water solubility”.
Take 5S-(E)-oleaceinediol: the IC50 in the series with MCF-7 cancer cells and with HeLa cancer cells was 5 µM in each case. Further, the “water solubility with respect to substances (1), (2)” value in the series “water solubility” is reported as “greatly increased water solubility”.

The record behind these values is patent US12466779B2, “Method for obtaining oleacein and oleomissional type secoiridoids and for producing respective pharmaceutical preparations” (OMPHAX SA, priority 2019, dated 2025).
